Assay results published in PMC10456528, “Purification and Molecular Docking Study on the Angiotensin I-Converting Enzyme (ACE)-Inhibitory Peptide Isolated from Hydrolysates of the Deep-Sea Mussel Gigantidas vrijenhoeki” (Marine Drugs, 2023).
Ends that are not written are not given here. Peptide text beside a SMILES is read from it.

Target: T1, angiotensin I-converting enzyme (ACE) (Homo sapiens, UniProt P12821)
Test: ACE inhibitory activity assay (Dojindo ACE Kit)
Format: biochemical
Parameters: purchased Dojindo Laboratories, Kumamoto, Japan
Settings: synthetic peptides with the sequences identified in <1 kDa fraction; triplicate experiments
Method: ACE inhibitory activity was measured using the Dojindo ACE Kit-WET kit (Dojindo Laboratories, Kumamoto, Japan), according to the manufacturer’s instructions. The ACE-inhibitory activity was calculated as follows: ACE inhibitory activity (%)=Acontrol−Asample/Acontrol−Ablank×100% where Acontrol is the absorbance of the positive control, Ablank is the absorbance of the blank containing distilled water, and Asample is the absorbance of the sample. The IC50 value was determined as the concentration of inhibitor required to inhibit 50% of the ACE activity.
Target sequence in this assay (P12821 30-1306, species assumed): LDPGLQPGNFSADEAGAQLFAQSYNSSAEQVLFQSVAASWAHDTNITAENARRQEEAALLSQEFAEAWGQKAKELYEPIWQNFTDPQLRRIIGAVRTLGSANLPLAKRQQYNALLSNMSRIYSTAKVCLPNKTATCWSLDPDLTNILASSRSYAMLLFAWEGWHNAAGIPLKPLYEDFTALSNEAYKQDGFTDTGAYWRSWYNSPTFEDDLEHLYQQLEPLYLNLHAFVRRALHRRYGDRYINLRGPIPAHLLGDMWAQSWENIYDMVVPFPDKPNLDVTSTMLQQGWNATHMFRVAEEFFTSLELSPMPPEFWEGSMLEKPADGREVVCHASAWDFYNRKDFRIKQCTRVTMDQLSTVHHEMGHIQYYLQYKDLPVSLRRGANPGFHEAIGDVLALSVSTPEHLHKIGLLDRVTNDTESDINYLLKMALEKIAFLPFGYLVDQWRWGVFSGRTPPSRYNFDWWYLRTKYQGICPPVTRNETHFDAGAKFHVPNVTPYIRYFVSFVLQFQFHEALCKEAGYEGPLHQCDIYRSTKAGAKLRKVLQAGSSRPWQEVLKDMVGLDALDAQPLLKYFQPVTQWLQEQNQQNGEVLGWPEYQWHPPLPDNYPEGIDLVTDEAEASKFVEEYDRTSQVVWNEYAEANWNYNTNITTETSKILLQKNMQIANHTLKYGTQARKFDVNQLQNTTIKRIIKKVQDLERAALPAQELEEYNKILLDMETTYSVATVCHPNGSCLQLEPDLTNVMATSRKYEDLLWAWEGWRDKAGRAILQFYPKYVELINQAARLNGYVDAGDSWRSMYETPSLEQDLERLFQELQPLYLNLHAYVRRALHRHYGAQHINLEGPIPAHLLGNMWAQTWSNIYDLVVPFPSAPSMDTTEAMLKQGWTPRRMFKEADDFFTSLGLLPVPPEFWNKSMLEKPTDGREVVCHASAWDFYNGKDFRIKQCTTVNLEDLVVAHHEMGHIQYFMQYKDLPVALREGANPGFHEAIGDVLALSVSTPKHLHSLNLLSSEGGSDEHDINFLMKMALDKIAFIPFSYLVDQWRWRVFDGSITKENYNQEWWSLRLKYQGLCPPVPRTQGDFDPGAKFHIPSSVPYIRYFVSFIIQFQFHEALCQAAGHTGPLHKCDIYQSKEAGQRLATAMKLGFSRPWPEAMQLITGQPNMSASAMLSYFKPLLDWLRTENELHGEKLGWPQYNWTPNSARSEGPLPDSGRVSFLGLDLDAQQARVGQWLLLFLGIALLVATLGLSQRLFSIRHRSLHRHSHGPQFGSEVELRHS

IC50 | Molecule
435 ± 7 nM | CC(C)C[C@H](NC(=O)[C@@H](N)CC(C)C)C(=O)N[C@@H](CCCNC(=N)N)C(=O)O [GVP-9, LLR]
513 ± 2 nM | PGLADMR [GVP-8, PGLADMR]
67 ± 5 nM | CC(C)C[C@H](N)C(=O)N[C@H](C(=O)N[C@@H](CCCNC(=N)N)C(=O)O)C(C)C [GVP-4, LVR] (H-Leu-Val-Arg-OH; N-terminus and C-terminus assumed)
795 ± 15 nM | YALPHAL [GVP-11, YALPHAL]
1390 ± 11 nM | CC(C)C[C@H](NC(=O)[C@H](CO)NC(=O)[C@H](CC(N)=O)NC(=O)[C@@H](N)CC(C)C)C(=O)O [GVP-6, LNSL] (H-LNSL-OH; N-terminus and C-terminus assumed)
7 ± 2 nM | KLLWNGKM [GVP-10, KLLWNGKM]
24 ± 17 nM | ALRPKF [GVP-7, ALRPKF]
582 ± 8 nM | PSLVG [GVP-5, PSLVG]

Continued, molecule first:

Molecule | IC50
CC(C)C[C@H](NC(=O)[C@@H](N)CCCCN)C(=O)N[C@@H](CCC(N)=O)C(=O)N[C@@H](CCC(=O)O)C(=O)O [GVP-1, KLQE] (H-KLQE-OH) | 2960 ± 165 nM
CC(C)C[C@H](NC(=O)[C@H](Cc1c[nH]cn1)NC(=O)[C@@H](NC(=O)[C@@H](N)CCCCN)C(C)C)C(=O)O [GVP-3, KVHL] (H-KVHL-OH) | 292 ± 13 nM
CC(C)C[C@H](NC(=O)[C@@H](NC(=O)[C@@H](N)CCCCN)C(C)C)C(=O)N[C@@H](Cc1c[nH]cn1)C(=O)O [GVP-2, KVLH] (H-KVLH-OH) | 162 ± 2 nM

Target: T1, angiotensin I-converting enzyme (ACE)
Test: not given
Settings: not given
Target sequence in this assay (P12821 30-1256): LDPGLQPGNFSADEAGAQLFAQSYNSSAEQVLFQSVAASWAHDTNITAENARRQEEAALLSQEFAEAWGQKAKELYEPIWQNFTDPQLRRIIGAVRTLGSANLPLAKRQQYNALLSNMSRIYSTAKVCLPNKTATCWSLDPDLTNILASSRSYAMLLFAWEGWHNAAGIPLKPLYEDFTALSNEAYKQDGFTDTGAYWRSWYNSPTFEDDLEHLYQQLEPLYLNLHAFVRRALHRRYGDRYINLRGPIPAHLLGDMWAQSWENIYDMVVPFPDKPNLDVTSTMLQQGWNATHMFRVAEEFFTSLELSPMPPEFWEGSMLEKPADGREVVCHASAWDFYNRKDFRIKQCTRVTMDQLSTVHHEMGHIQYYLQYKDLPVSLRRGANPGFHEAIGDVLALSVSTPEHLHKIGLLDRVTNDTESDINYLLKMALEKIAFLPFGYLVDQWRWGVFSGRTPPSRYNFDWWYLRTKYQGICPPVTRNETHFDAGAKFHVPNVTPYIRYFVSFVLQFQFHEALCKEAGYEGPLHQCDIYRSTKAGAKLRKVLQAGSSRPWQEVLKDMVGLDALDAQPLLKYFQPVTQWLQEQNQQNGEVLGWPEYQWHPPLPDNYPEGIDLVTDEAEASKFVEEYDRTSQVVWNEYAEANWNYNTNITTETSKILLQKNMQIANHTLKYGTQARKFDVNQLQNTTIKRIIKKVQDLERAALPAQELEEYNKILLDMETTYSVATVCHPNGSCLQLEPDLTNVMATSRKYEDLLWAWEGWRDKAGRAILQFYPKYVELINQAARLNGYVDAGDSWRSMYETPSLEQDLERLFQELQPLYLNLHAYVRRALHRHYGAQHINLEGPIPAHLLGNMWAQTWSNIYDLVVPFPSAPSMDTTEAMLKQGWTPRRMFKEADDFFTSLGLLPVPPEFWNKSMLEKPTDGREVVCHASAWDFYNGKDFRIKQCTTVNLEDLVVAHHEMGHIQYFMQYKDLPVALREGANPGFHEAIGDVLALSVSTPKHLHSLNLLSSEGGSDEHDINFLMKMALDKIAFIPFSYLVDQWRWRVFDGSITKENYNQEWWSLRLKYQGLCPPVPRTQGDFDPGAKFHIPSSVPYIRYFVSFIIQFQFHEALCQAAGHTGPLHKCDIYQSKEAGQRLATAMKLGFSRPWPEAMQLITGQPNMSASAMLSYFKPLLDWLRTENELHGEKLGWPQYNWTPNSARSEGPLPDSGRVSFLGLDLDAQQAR

IC50 of ACE inhibitory activity (enzyme activity, Dojindo ACE kit, synthetic peptide) | Molecule
582 nM | PSLVG [G. vrijenhoeki peptide (GVP)-5]
24 nM | ALRPKF [G. vrijenhoeki peptide (GVP)-7]
7 nM | KLLWNGKM [G. vrijenhoeki peptide (GVP)-10]
1390 nM | LNSL [G. vrijenhoeki peptide (GVP)-6]
162 nM | KVLH [G. vrijenhoeki peptide (GVP)-2]
292 nM | KVHL [G. vrijenhoeki peptide (GVP)-3]
795 nM | YALPHAL [G. vrijenhoeki peptide (GVP)-11]
2960 nM | KLQE [G. vrijenhoeki peptide (GVP)-1]
513 nM | PGLADMR [G. vrijenhoeki peptide (GVP)-8]
